Results reported in the supplement of paper PMC10307832.

Experiments:
Assay in all cases: relative viability (nuclei count vs DMSO), 5 days (fraction); higher = more cells survive
[1] = compound: CC1=C(C(=NN1)C)CC2=C(C3=C(S2)N(C(=O)N(C3=O)C)CC(C)C)C(=O)N4C[C@@H](CO4)O + CC(C)C[C@H](NC(=O)[C@H](Cc1ccccc1)NC(=O)c1cnccn1)B(O)O [Bortezomib] (partner 0.002 µM)
Outline: (§1)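 Five library-drug doses in √10 steps were combined with a fixed anchor-drug dose, or a single drug was given alone, by pin tool to lung cancer cell lines in 1536-well plates the day after seeding. Nuclei were stained and counted after 5 days. Relative viability is the nuclei count in treated wells over that in vehicle wells, taken as the median of duplicate plates.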

[2] = compound: CC1=C(C(=NN1)C)CC2=C(C3=C(S2)N(C(=O)N(C3=O)C)CC(C)C)C(=O)N4C[C@@H](CO4)O + C[C@@H](Oc1cc(-c2cnn(C3CCNCC3)c2)cnc1N)c1c(Cl)ccc(F)c1Cl [Crizotinib] (partner 1 µM)
Outline: as §1

[3] = compound: Cc1ccccc1C(C(=O)NC1CCCCC1)N(C(=O)Cn1ccnc1C)c1cccc(F)c1 [IDH-C35] + CC(C)C[C@H](NC(=O)[C@H](Cc1ccccc1)NC(=O)c1cnccn1)B(O)O [Bortezomib] (partner 0.002 µM)
Outline: as §1

[4] = compound: Cc1ccccc1C(C(=O)NC1CCCCC1)N(C(=O)Cn1ccnc1C)c1cccc(F)c1 [IDH-C35] + NC(=O)Nc1cc(-c2cccc(F)c2)sc1C(=O)N[C@H]1CCCNC1 [AZD7762] (partner 0.2 µM)
Outline: as §1

Row | Cell Line | relative viability ([1]; first compound 0.0025 µM) | relative viability ([1]; first compound 0.007906 µM) | relative viability ([1]; first compound 0.025 µM) | relative viability ([1]; first compound 0.07906 µM) | relative viability ([1]; first compound 0.25 µM) | relative viability ([2]; first compound 0.0025 µM) | relative viability ([2]; first compound 0.007906 µM) | relative viability ([2]; first compound 0.025 µM) | relative viability ([2]; first compound 0.07906 µM) | relative viability ([2]; first compound 0.25 µM) | relative viability ([3]; first compound 0.08 µM) | relative viability ([3]; first compound 0.253 µM) | relative viability ([3]; first compound 0.8 µM) | relative viability ([3]; first compound 2.53 µM) | relative viability ([3]; first compound 8 µM) | relative viability ([4]; first compound 0.08 µM) | relative viability ([4]; first compound 0.253 µM) | relative viability ([4]; first compound 0.8 µM) | relative viability ([4]; first compound 2.53 µM) | relative viability ([4]; first compound 8 µM)
1 | NCI-H460 | 1.1 | 1.37 | 0.984 | 1.07 | 1.28 | 0.865 | 1.1 | 0.848 | 1.12 | 0.948 | 1.2 | 1.18 | 1.08 | 1.11 | 1.12 | 0.623 | 0.663 | 0.609 | 0.586 | 0.578
2 | NCI-H1666 | 0.933 | 0.874 | 0.821 | 0.778 | 0.81 | 1.04 | 1.16 | 1.05 | 0.977 | 1.08 | 0.769 | 0.881 | 0.914 | 0.872 | 0.691 | 0.934 | 1.03 | 0.795 | 0.712 | 0.94
3 | NCI-H1651 | 0.956 | 1.02 | 0.889 | 0.879 | 0.856 | 0.807 | 0.857 | 0.822 | 0.804 | 0.786 | 0.884 | 0.999 | 0.878 | 0.992 | 0.876 | 0.454 | 0.518 | 0.463 | 0.438 | 0.413
4 | NCI-H1755 | 1.01 | 0.875 | 0.962 | 0.963 | 1.13 | 0.876 | 0.952 | 0.941 | 0.877 | 0.967 | 0.885 | 1.04 | 0.881 | 0.971 | 0.933 | 0.47 | 0.574 | 0.453 | 0.452 | 0.462
5 | HARA | 1.21 | 1.15 | 1 | 0.979 | 1.1 | 1.09 | 1.19 | 0.915 | 0.987 | 1.04 | 1.18 | 1.04 | 1.13 | 1.15 | 1.05 | 0.362 | 0.422 | 0.318 | 0.22 | 0.383
6 | NCI-H596 | 0.997 | 1.11 | 1.05 | 1.15 | 0.98 | 1.02 | 1.06 | 0.954 | 1.04 | 1.16 | 1.02 | 0.998 | 1.2 | 1.2 | 0.999 | 0.959 | 1.14 | 1.01 | 1.05 | 1.26
7 | NCI-H23 | 1.07 | 1.24 | 0.848 | 0.964 | 1.33 | 0.519 | 0.613 | 0.499 | 0.568 | 0.604 | 0.977 | 0.836 | 1.07 | 1.13 | 0.94 | 0.239 | 0.253 | 0.229 | 0.359 | 0.272
8 | LCLC-97TM1 | 0.657 | 0.484 | 0.347 | 0.637 | 0.949 | 0.448 | 0.436 | 0.371 | 0.361 | 0.692 | 0.616 | 0.691 | 0.53 |  | 0.511 | 0.265 | 0.384 | 0.143 |  | 0.192
9 | EPLC-272H | 0.919 | 0.874 | 0.971 | 1.01 | 0.925 | 0.821 | 0.863 | 0.904 | 0.773 | 1.1 | 0.906 | 0.962 | 1.05 |  | 0.856 | 0.387 | 0.266 | 0.215 |  | 0.305
10 | NCI-H1915 | 0.987 | 1.03 | 0.974 | 0.827 | 1.03 | 0.959 | 0.92 | 0.836 | 0.884 | 1.01 | 0.939 | 0.977 | 0.963 | 0.961 | 0.995 | 0.674 | 0.7 | 0.696 | 0.663 | 0.716
11 | NCI-H2405 | 0.991 | 0.912 | 0.918 | 0.858 | 0.941 | 0.91 | 0.805 | 0.727 | 0.748 | 0.805 | 1 | 1 | 0.97 | 0.972 | 0.875 | 0.857 | 0.771 | 0.815 | 0.913 | 0.768
12 | NCI-H322M | 1.34 | 1.19 | 1.33 | 1.23 | 1.19 | 1.03 | 1.03 | 0.758 | 0.927 | 0.998 | 1.22 | 1.17 | 1.15 | 1.21 | 1.27 | 0.532 | 0.65 | 0.476 | 0.538 | 0.546
13 | NCI-H838 | 0.88 | 1.13 | 0.786 | 0.738 | 0.929 | 0.869 | 1.02 | 0.747 | 0.809 | 0.885 | 1.06 | 0.758 | 0.668 | 1.1 | 1.08 | 1.09 | 0.922 | 0.918 | 0.953 | 0.925
14 | CAL-12T | 1.07 | 0.978 |  | 0.891 | 0.926 | 0.76 | 0.724 | 0.558 | 0.667 | 0.817 | 0.975 | 0.863 | 1.03 | 1.05 | 0.85 | 0.545 | 0.569 | 0.686 | 0.589 | 0.577
